The nature of series [1]: Ratio of drug level in brain to plasma of Wistar rat. Format: ADME.
The subject of series [2] is Rattus norvegicus. The series can be described thus: Reduction of blood glucose level in po dosed Zucker fatty (fa/fa) rat administered 2 hrs before glucose challenge measured after 40 mins glucose challenge by oral glucose tolerance test. Format: functional, organism-based.
Series [3] in a line: Clearance in Wistar rat at 1 mg/kg, iv. Format: ADME, organism-based. More on the design: dose 1 mg/kg, route intravenous. The settings on record: in vivo.
A short description of series [4]: Volume of distribution at steady state in Wistar rat at 1 mg/kg, iv. Conditions: in vivo, read-out: Vdss. Format: ADME, organism-based. Further details: dose 1 mg/kg, route intravenous.
Series [5] can be described thus: Oral bioavailability in Wistar rat at 3 mg/kg. Format: ADME, organism-based. Conditions: in vivo.
The target in a further series is Dipeptidyl peptidase 4 (Homo sapiens, UniProt P27487). In words: Inhibition of DPP4.
Series [6] is described as follows: Half life in Wistar rat at 1 mg/kg, iv. Format: ADME, organism-based. More on the design: dose 1 mg/kg, route intravenous. The settings on record: in vivo.
For the next series, the system named is Phospholipidosis. In words: Minimal effective concentration for in vitro drug-induced phospholipidosis in fibroblasts. Format: ADME, cell-based. Conditions: fibroblast.
Series [7] is described as follows: Distribution coefficient, log D at pH 7.4. Format: physicochemical. Conditions: octanol/water.
For series [8], the system named is Rattus norvegicus. In words: Reduction of blood glucose level in Zucker fatty (fa/fa) rat at 0.3 mg/kg, po administered 2 hrs before glucose challenge measured after 40 mins glucose challenge by oral glucose tolerance test. Format: functional. More on the design: scale not given: the % may be the effect or the level left.
The nature of series [9]: Mutagenic activity in Salmonella Typhimurium. Conditions: salmonella enterica subsp. enterica serovar typhimurium. Format: toxicity.

The term Kp denotes the ratio of the level in a tissue or fluid to that in plasma or blood. As a reminder, the clearance is the rate of elimination divided by the concentration. As usually defined, the bioavailability is dose-corrected exposure relative to a reference, in per cent. Broadly, the pIC50 is the negative decadic logarithm of the IC50, by convention in mol/L. A word on the half-life: it is how long it takes for the measured level to halve. The term logD denotes lipophilicity at a set pH, counting ionised and neutral species.

pIC50: −log10 of the molar value.

Dipeptidyl peptidase 4, sequence (P27487 whole entry): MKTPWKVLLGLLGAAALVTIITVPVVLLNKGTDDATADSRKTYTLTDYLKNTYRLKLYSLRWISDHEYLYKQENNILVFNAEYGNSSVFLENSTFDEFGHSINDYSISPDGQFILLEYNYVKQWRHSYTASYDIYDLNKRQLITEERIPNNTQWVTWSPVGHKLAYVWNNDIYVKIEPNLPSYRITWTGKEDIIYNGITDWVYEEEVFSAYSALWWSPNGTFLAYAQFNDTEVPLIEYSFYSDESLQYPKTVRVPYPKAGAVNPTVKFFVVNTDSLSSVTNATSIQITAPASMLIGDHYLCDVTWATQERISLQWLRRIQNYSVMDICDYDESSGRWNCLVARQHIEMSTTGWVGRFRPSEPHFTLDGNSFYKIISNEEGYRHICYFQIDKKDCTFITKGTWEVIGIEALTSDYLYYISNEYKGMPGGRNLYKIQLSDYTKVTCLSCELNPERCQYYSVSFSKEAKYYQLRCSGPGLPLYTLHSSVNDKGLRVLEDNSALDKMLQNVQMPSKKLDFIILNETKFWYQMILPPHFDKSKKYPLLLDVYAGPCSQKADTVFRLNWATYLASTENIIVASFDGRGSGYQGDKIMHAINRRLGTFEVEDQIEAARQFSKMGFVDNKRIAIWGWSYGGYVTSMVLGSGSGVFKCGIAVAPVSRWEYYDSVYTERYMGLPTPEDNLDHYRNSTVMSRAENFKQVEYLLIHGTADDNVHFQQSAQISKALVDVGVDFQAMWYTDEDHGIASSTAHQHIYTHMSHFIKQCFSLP

As to `COc1cc2c(cc1OC)[C@@H]1C[C@H](N)[C@@H](c3cc(C)ccn3)CN1CC2`, the Kp in [1] stood at 0.7. Further, the Activity result in the series with Rattus norvegicus [2] is “Dose-dependent effect”. For the same molecule, the clearance in [3] is 118 mL/min/kg. For the same molecule, the Vd in series [4] is 12 L/kg. Further, in [5], the bioavailability stood at 50%. On Dipeptidyl peptidase 4, this molecule had a negative-log IC50 (pIC50) of 7.96. The molecule also gave a half-life in series [6] of 1.4 h.

Consider `COc1cc2c(cc1OC)[C@H]1C[C@@H](N)[C@H](c3cc(C)ccn3)CN1CC2`, for which the pIC50 on Dipeptidyl peptidase 4 is 4.28.

As to `COc1cc2c(cc1OC)[C@@H]1CC(N)[C@@H](c3ccccc3)CN1CC2` (mixture of isomers), the Phospholipidosis_MEC with Phospholipidosis came to 5 µM. Besides, the logD in series [7] stood at 0.8.

Consider `COc1cc2c(cc1OC)[C@@H]1CC(N)[C@@H](c3cccc(C)c3)CN1CC2` (mixture of isomers), for which the Kp in series [1] turned out to be 5.8. This molecule came in with a clearance in [3] of 87 mL/min/kg. For the same molecule, the Vd in [4] is 42 L/kg. The molecule also came in with a Phospholipidosis_MEC in the series with Phospholipidosis of 2.5 µM. Also, the bioavailability in [5] came out at 56%. For the same molecule, in series [6], the half-life is 6.9 h. The pH-dependent lipophilicity (logD) in [7] was determined as 1.3. Further, the Activity in the series on Rattus norvegicus [8] is listed as 41%.

In the case of `COc1cc2c(cc1OC)[C@@H]1CC(N)[C@@H](c3cccc(Cl)c3)CN1CC2` (mixture of isomers), in [7], the logD came to 1.7.

Consider `COc1cc2c(cc1OC)[C@@H]1CC(N)[C@@H](c3cccc(C4CC4)c3)CN1CC2` (mixture of isomers), for which the pIC50 at Dipeptidyl peptidase 4 is 7.42. For the same molecule, in series [7], the logD turned out to be 1.8.

As for `COc1cc2c(cc1OC)[C@@H]1CC(N)[C@@H](c3cccc(C(C)C)c3)CN1CC2` (mixture of isomers), at Dipeptidyl peptidase 4, the pIC50 was 5.26. Also, the log distribution coefficient (logD) in series [7] turned out to be 2.

In the case of `COc1cc2c(cc1OC)[C@@H]1CC(N)[C@@H](c3cccc(CF)c3)CN1CC2` (mixture of isomers), the logD in [7] came to 1.6.

`CCc1cccc([C@H]2CN3CCc4cc(OC)c(OC)cc4[C@@H]3CC2N)c1` (mixture of isomers) had a pIC50 at Dipeptidyl peptidase 4 of 7.21. In [7], the logD came out at 1.7.

Turning to `COc1cc2c(cc1OC)[C@@H]1CC(N)[C@@H](c3cc(CF)ccn3)CN1CC2` (mixture of isomers), the Activity entry in [9] is reported as “Toxic”. The molecule also had a pIC50 against Dipeptidyl peptidase 4 of 8.92. The molecule also yielded a logD in series [7] of 0.1.

In turn, `COc1cc2c(cc1OC)[C@@H]1CC(N)[C@@H](c3cc(C)ccn3)CN1CC2` (mixture of isomers) came in with a Phospholipidosis_MEC in the series with Phospholipidosis of 15 µM. The negative logarithm of the IC50 (pIC50) on Dipeptidyl peptidase 4 was 7.72. The logD in [7] is 0.3.

On Dipeptidyl peptidase 4, `COc1cc2c(cc1OC)[C@@H]1CC(N)[C@@H](c3cc(C)ccc3C)CN1CC2` (mixture of isomers) had a pIC50 of 8.77. In series [7], this molecule displayed a logD of 1.6.
